Measured values published in EPA's ToxValDB 9.5 (doi:10.2903/j.efsa.2015.4206).

Assays:
Apis mellifera = details: acute, mortality
Bibionidae = details: chronic/long-term; duration: 28 days; development
Canidae = details: oral, Dog Other
Colinus virginianus = details: acute; oral; mortality
Daphnia magna = details: chronic/long-term; duration: 21 days; reproduction
Folsomia candida = details: chronic/long-term; duration: 28 days
Hypoaspis aculeifer = details: chronic/long-term; duration: 14 days
Oncorhynchus mykiss = details: chronic/long-term; duration: 21 days; growth
Aphidius rhopalosiphi = experiment: LR50; higher = less toxic; details: not reported; mortality
Typhlodromus pyri = experiment: LR50; higher = less toxic; details: not reported; mortality

## CC(C)c1ccc(NC(=O)N(C)C)cc1 [Isoproturon]
Apis mellifera; dermal
  LD50: > 100 µg/piece
Apis mellifera; oral, unspecified
  LD50: > 99.2 µg/piece
Bibionidae
  NOEC: 0.344 mg/L
Canidae; short-term, histopathology: nonneoplastic
  NOAEL: 3.2 mg/kg-day
Canidae; subchronic, duration: 90 days, hematological
  NOAEL: 10 mg/kg-day
Colinus virginianus
  LD50: 1400 mg/kg-day
Coturnix japonica; acute, oral, diet, mortality
  LC50: > 5000 mg/kg
Coturnix japonica; reproduction developmental, reproduction
  NOAEL: 12 mg/kg-day
Daphnia magna
  NOEC: 0.12 mg/L
Folsomia candida
  NOEC: 24.3 mg/kg
Hypoaspis aculeifer
  NOEC: > 459 mg/kg
Oncorhynchus mykiss
  NOEC: 1 mg/L
Rattus norvegicus; acute, mortality
  LD50: 1830 mg/kg-day
Rattus norvegicus; chronic
  NOEC: 10 mg/kg-day
Rattus norvegicus; chronic, duration: 2 years, histopathology: neoplastic
  NOAEL: 3.1 mg/kg-day
Tagia sp.; acute, duration: 14 days, mortality
  LC50: > 500 mg/kg
Tagia sp.; chronic/long-term, duration: 8 weeks
  NOEC: 14 mg/kg
Aphidius rhopalosiphi
  LR50: > 2500 g/ha
Typhlodromus pyri
  LR50: > 2500 g/ha
